What was measured:
Assay type in all cases: cell-based
human mGluR5d receptor = target: T1, human mGluR5d receptor (Homo sapiens, UniProt P41594); test: Xenopus oocyte expression assay, calcium-activated chloride current; conditions: for desensitization of evoked calcium-activated chloride currents: repeated application of 10-100 μM, Xenopus oocytes expressing hmGluR5d
T1 construct: expressed in transfected cells; host or cells: Xenopus laevis oocytes injected with cRNA transcribed from phmGluR5d(Hyg+)
Description: This example describes the activation of the novel hmGluRSd splice variant using a Xenopus oocyte expression assay. PhmGluR5d(Hyg+) DNA was linearized by restriction enzyme digestion, and capped sense-strand cRNA was synthesized by T7 RNA polymerase transcription (Ambion Message Machine Kit). In vitro-transcribed RNA was concentrated by ethanol precipitation and the size and integrity of the RNA was assessed on a denaturing agarose gel.
In vitro-transcribed RNA (˜10 ng) encoding the human mGluR5d receptor was injected into Xenopus Oocytes. Following injection, oocytes were incubated at 16° C. in MBS containing 1 mM CaCl2 for 2 to 7 days prior to electrophysiological recording. Following the incubation, the oocytes were voltage-clamped using standard electrophysiological techniques. […] Activation of the hmGluR5d receptor was detected by increases in the calcium-activated chloride current.
Test substances were applied by superfusion at a flow rate of about 5 ml/min. Receptor activation was determined by measuring the increase in calcium-activated chloride current (ICl) Increases in ICl were quantified by measuring the peak inward current stimulated by activating agent, relative to the holding current at […].

hmGluR5d receptor = target: T2, hmGluR5d receptor (Homo sapiens, UniProt P41594); test: Increases in intracellular calcium (Fluo3-AM, FLIPR) in transfected HEK293 cells; conditions: hmGluR5d expressed in HEK293 cells, FIG. 4
T2 construct: The full-length human mGluR5d was then subcloned into the mammalian expression vector pcDNA3.1/Hygro(+) vector; expressed in transfected cells; host or cells: HEK293 cells (ATCC CRL 1573) transfected with phmGluR5d(Hyg+)
Description: Human embryonic kidney cells (293, ATCC, CRL 1573) are grown in a routine manner. Cells are plated in 10 cm cell-culture plates in Dulbecco's modified Eagle's medium (D-MEM) containing 10% fetal bovine serum (FBS) and 1× penicillin-streptomycin (Life Technologies) so that they are approximately 70% confluent after an overnight incubation. To prepare DNA for transfection, the plasmid phmGluR5d(Hyg+) is precipitated with ethanol, rinsed and resuspended in sterile water at a concentration of 1 μg/μl. Ten micrograms of the plasmid DNA is incubated with the liposome formulation LipofectAMINE™ (Life Technologies) for 20 minutes in 1.6 mls of serum-free Opti-MEM (Life Technologies). After the room temperature incubation, 6.4 mls of Opti-MEM is added to the transfection mix. This solution is added to the cells which have been rinsed twice with 8 ml washes of Opti-MEM. The cells and transfection mix are incubated at 37° C. for 5 hours, at which time 8 mls of Opti-MEM/20% FBS is added to bring the FBS concentration to 10%. […] Expression of the novel human mGluR5d splice variant of the present invention in clonal cell lines or pools can be assessed by Northern blot analysis of human mGluR5d mRNA or functionally as in the above experiments by assessing increases in intracellular calcium in response to mGluR5 agonists. […]

[1] = target: T3, hCaR/hmGluR5d chimeric receptor (Homo sapiens, UniProt P41180); test: Increases in intracellular calcium (Fluo3-AM, FLIPR) in HEK293 cells expressing the chimeric receptor; conditions: hCaR/hmGluR5d expressed in HEK293 cells, FIG. 5
T3 construct: expressed in transfected cells; host or cells: HEK293 cells (ATCC CRL 1573) stably transfected with phCaR/hmGluR5d(Hyg+)
Description: This example provides a method for the production of stably transfected mammalian cell lines expressing the chimeric receptor hCaR/hmGluR5d, but is not meant to be limiting. Human embryonic kidney cells (293, ATCC, CRL 1573) are grown in a routine manner. Cells are plated in 10 cm cell-culture plates in Dulbecco's modified Eagle's medium (D-MEM) containing 10% fetal bovine serum (FBS) and 1×penicillin-streptomycin (Life Technologies) so that they are approximately 70% confluent after an overnight incubation. To prepare DNA for transfection, the plasmid phCaR/hmGluR5d(Hyg+) is precipitated with ethanol, rinsed and resuspended in sterile water at a concentration of 1 μg/μl. Ten micrograms of the plasmid DNA is incubated with the liposome formulation LipofectAMINE™ (Life Technologies) for 20 minutes in 1.6 mls of serum-free Opti-MEM (Life Technologies). […] Expression can also be assessed by Western blot analysis using the commercially available antibody Anti-Rat mGluR5, polyclonal (Upstate Biotechnology).
The chimeric receptor, hCaR/hmGluR5d, also mediates the stimulation of inositol phosphate (IP)/Ca^2+ signal transduction. […] After an additional 24 hour incubation, cells are loaded with the calcium indicator dye Fluo3-AM and increases in intracellular calcium in response to calcium are measured using an automated fluorescent imaging plate reader (FLIPR). […]

T1 sequence (P41594 21-942 isoform P41594-3): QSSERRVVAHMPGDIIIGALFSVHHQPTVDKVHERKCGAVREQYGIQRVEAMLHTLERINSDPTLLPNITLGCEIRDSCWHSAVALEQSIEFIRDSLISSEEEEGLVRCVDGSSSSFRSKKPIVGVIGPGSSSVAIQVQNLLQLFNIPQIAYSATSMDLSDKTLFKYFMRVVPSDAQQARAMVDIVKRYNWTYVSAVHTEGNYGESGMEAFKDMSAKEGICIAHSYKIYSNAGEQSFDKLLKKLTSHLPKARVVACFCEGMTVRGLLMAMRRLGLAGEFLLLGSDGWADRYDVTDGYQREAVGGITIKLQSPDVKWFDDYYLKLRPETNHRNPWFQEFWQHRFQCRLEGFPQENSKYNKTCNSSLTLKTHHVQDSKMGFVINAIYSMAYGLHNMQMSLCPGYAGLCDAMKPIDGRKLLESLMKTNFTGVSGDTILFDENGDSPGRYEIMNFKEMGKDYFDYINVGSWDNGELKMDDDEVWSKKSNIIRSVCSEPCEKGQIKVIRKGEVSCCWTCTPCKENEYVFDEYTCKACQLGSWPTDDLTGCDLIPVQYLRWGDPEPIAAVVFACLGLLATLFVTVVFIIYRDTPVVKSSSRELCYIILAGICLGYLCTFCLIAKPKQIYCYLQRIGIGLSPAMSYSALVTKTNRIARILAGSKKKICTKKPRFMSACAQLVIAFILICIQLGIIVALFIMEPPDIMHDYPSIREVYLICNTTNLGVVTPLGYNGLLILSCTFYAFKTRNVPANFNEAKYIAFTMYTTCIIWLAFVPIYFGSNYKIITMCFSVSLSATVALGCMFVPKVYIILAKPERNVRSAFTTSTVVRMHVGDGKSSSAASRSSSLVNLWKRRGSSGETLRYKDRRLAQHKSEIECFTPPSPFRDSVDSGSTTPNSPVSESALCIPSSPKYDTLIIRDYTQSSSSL
T3 sequence (P41180 with tags, fused parts or gaps): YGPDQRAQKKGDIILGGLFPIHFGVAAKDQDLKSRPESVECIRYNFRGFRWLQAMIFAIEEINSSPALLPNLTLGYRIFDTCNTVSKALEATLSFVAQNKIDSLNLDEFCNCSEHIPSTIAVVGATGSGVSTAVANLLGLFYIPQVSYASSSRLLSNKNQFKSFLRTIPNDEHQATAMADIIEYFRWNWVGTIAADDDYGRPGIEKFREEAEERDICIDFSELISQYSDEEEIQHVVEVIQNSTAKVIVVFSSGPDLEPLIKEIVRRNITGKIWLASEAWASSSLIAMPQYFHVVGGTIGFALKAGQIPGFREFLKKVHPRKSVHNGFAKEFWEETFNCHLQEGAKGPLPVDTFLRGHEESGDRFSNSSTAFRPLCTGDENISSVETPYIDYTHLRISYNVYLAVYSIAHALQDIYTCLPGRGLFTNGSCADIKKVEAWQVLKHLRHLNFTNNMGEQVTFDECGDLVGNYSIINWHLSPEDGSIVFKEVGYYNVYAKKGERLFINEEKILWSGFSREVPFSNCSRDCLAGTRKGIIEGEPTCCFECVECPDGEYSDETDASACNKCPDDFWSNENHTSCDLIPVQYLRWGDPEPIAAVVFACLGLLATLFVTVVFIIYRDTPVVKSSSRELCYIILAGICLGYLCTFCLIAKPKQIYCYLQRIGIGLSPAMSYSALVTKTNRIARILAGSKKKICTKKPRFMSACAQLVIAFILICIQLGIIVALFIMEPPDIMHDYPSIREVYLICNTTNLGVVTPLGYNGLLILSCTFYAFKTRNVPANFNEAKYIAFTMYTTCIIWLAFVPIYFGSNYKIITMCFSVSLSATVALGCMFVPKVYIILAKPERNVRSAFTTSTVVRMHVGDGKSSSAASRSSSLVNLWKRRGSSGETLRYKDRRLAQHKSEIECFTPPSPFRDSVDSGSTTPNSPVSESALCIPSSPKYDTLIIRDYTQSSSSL
T2 sequence (P41594 21-942 isoform P41594-3): as the sequence (P41594 21-942 isoform P41594-3) above

functional activation of the receptor (agonist) (hmGluR5d receptor)	functional activation of the chimeric receptor (agonist) [1]	Compound	desensitization of evoked calcium-activated chloride currents (human mGluR5d receptor)	increase in calcium-activated chloride current (receptor activation) (human mGluR5d receptor; 100 μM, applied by superfusion, voltage-clamped Xenopus oocytes expressing hmGluR5d)
functional activation	–	N[C@H](C(=O)O)c1cc(O)cc(O)c1 [DHPG, (S)-3,5-dihydroxyphenylglycine]	only minimally desensitized	–
–	–	N[C@@H](CCC(=O)O)C(=O)O [L-glutamate]	only minimally desensitized	reversible, oscillatory increases in the calcium-activated chloride current
–	functional activation	calcium	–	–

From US7241863B2, “Human metabotropic glutamate receptor” (NPS Pharmaceuticals, Inc., priority 2003, dated 2007)
